Earlier results as cited in paper PMC6021390, “A promiscuous cytochrome P450 aromatic O-demethylase for lignin bioconversion” (Nature Communications, 2018).

Legend:
LigX = system: LigX; design: method as in ref 37 (a number printed in a supplementary file, which may have a reference list of its own: not looked up in the article's list); details: 0.2 μM LigXa, 6 μM LigXc, 0.4 μM LigXd, 500 μM NADH, substrate 10-500 μM, FE22 buffer, pH 6.0, 30 °C; cited from earlier work
PODA [1] = system: PODA; design: method as in ref 36 (a number printed in a supplementary file, which may have a reference list of its own: not looked up in the article's list); details: 100 μg PODA, 500 μM α-KG, 500 μM iron sulfate, 10 mM sodium ascorbate, cryptopine 0-500 μM, pH 7.4, 30 °C; cited from earlier work
PODA [2] = experiment: Cited steady-state O-demethylation of cryptopine (0-500 uM) by 100 ug PODA with 500 uM alpha-ketoglutarate, 500 uM iron sulfate and 10 mM sodium ascorbate in 100 mM Tris, pH 7.4, 30 °C, air.; format: biochemical; details: cited from earlier work

Row | Structure (SMILES) | kcat (LigX) [s⁻¹] | kcat (PODA [1]) [s⁻¹] | Km (PODA [2]) [µM]
1 | COc1cc(C(=O)O)cc(-c2cc(C(=O)O)cc(OC)c2O)c1O [5,5’-dehydrodivanillate] | 6.1 ± 0.2 | – | –
2 | COc1cc2c(cc1OC)C(=O)Cc1ccc3c(c1CN(C)CC2)OCO3 [cryptopine] | – | 0.034 | 27
